From patent publication US20250361230A1, “LATS Inhibitors and Uses Thereof” (The USA, as Represented by the Secretary, Dept. of Heath …, priority 2022, published 2025)

How the values were obtained:
Assay type in all cases: biochemical
AKT = AKT (Homo sapiens, UniProt P31749); experiment: RBC HotSpot kinase assay (33P-ATP, P81 filter-binding), AKT; details: Table 28, biochemical kinase assay; read-out: AKT IC50
Method in brief: (§1)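 Compounds were run as single 10-point titrations to give IC50 values in nM. Each kinase was mixed with substrate and cofactors in 20 mM Hepes pH 7.5 reaction buffer with 1% DMSO, then exposed to compound for 20 min. 33P-ATP was added for a 2 h room-temperature reaction, with activity measured by P81 filter binding.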

LATS1 = biological target: T1, LATS1 (Homo sapiens, UniProt O95835); experiment: RBC HotSpot kinase assay (33P-ATP, P81 filter-binding), LATS1; details: Table 28, biochemical kinase assay; read-out: LATS1 IC50
T1 sequence (O95835 1-1130): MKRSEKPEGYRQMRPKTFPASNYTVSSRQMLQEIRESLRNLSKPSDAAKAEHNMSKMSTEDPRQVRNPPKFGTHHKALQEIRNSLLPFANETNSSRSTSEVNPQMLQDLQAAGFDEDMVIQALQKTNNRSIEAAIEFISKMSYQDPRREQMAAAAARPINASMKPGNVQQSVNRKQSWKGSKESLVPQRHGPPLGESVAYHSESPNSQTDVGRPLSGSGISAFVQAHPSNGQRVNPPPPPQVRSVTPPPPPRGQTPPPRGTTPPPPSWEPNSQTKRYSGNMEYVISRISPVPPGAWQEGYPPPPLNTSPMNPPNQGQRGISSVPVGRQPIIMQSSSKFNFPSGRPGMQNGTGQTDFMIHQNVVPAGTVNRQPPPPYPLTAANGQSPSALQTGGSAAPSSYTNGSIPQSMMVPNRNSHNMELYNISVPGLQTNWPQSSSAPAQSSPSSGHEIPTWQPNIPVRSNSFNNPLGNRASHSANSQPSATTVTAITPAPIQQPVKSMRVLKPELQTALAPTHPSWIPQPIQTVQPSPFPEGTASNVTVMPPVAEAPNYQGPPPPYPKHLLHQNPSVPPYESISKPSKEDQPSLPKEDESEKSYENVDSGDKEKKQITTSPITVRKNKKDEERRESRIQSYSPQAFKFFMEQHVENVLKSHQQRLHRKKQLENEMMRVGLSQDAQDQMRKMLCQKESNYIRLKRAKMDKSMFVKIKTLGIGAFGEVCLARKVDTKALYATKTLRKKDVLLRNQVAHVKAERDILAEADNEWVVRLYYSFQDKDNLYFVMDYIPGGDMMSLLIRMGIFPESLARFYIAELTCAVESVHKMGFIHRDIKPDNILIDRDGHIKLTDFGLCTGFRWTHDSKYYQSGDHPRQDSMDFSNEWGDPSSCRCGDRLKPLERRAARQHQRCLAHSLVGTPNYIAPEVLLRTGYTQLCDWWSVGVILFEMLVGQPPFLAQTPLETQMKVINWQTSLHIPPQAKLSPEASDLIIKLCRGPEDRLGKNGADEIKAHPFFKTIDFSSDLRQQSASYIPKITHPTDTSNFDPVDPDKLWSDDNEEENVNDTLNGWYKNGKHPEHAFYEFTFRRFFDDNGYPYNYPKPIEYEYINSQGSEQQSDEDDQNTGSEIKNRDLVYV
Method in brief: as §1

LATS2 = biological target: T2, LATS2 (Homo sapiens, UniProt Q9NRM7); experiment: RBC HotSpot kinase assay (33P-ATP, P81 filter-binding), LATS2; details: Table 28, biochemical kinase assay; read-out: LATS2 IC50
T2 sequence (Q9NRM7 1-1088): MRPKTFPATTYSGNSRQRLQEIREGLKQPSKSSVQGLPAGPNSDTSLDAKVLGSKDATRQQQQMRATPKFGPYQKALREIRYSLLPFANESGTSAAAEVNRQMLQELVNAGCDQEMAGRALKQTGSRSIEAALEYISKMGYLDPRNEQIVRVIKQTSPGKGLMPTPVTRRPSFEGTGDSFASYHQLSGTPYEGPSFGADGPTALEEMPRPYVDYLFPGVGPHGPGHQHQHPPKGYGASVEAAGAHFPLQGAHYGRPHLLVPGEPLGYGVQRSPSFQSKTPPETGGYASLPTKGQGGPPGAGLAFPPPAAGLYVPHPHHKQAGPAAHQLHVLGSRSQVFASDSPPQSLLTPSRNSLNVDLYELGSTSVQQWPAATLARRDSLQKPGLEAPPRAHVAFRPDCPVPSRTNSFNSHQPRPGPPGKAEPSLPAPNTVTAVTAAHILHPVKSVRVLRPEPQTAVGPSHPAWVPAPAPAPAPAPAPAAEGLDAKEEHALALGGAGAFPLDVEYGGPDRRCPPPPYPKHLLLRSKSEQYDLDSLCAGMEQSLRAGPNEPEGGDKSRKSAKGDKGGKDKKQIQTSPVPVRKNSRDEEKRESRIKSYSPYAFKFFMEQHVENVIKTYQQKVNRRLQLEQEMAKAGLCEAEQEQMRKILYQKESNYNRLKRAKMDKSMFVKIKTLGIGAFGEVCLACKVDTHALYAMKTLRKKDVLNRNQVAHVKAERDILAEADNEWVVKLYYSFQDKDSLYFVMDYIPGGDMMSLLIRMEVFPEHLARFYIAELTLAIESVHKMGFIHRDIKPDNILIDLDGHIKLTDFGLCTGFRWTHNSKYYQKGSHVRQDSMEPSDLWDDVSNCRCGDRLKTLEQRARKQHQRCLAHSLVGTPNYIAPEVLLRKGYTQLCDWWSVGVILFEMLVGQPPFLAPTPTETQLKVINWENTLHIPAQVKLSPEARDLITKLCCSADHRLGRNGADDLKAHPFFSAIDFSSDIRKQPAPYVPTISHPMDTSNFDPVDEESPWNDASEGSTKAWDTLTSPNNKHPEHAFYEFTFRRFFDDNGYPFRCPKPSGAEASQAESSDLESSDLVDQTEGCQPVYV
Method in brief: as §1

Sequence of AKT (P31749 whole entry): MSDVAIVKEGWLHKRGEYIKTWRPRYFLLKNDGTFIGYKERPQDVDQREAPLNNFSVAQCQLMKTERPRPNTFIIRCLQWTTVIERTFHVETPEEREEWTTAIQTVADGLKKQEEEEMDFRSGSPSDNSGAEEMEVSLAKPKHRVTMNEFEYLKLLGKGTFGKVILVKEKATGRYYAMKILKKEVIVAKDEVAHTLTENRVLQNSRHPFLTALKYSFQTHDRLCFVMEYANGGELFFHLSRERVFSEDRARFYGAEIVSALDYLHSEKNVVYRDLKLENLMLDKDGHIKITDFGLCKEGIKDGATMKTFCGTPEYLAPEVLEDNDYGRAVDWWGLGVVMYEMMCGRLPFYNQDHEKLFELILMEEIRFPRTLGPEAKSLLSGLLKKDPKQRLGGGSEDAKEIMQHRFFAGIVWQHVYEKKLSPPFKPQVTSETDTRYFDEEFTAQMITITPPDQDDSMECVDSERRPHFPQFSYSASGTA

| SMILES | IC50 (AKT) [nM] | IC50 (LATS1) [nM] | IC50 (LATS2) [nM] |
| --- | --- | --- | --- |
| C[C@@H]1CN(C(=O)[C@@H](C)N)C[C@H](C)C1(O)c1c(F)cc(-c2ccnc3[nH]cc(F)c23)cc1F (stereo partly drawn) [Compound 86, (2R)-2-amino-1-((3S,5R)-4-(2,6-difluoro-4-(3-fluoro-1H-pyrrolo[2,3-b]pyridin-4-yl)phenyl)-4-hydroxy-3,5-dimethylpiperidin-1-yl)propan-1-one] | 691 | 20.3 | 6.5 |
| C[C@@H]1CN(C(=O)CN)C[C@H](C)C1(O)c1cnc(-c2ccnc3[nH]cc(F)c23)cc1F (stereo partly drawn) [Compound 87, 2-amino-1-((3S,5R)-4-(4-fluoro-6-(3-fluoro-1H-pyrrolo[2,3-b]pyridin-4-yl)pyridin-3-yl)-4-hydroxy-3,5-dimethylpiperidin-1-yl)ethan-1-one] | 4010 | 48 | 47.3 |
| C[C@@H]1CN(C2CC3(CNC3)C2)C[C@H](C)[C@@]1(O)c1c(F)cc(-c2ccnc3[nH]cc(F)c23)cc1F [Compound 89, (3R,4s,5S)-4-(2,6-difluoro-4-(3-fluoro-1H-pyrrolo[2,3-b]pyridin-4-yl)phenyl)-3,5-dimethyl-1-(2-azaspiro[3.3]heptan-6-yl)piperidin-4-ol] | 68 | 3.7 | 3.8 |
| Cc1cc(-c2ccnc3[nH]cc(F)c23)cc(F)c1[C@@]1(O)[C@H](C)CN(C2CCNCC2)C[C@@H]1C [Compound 91, (3S,4s,5R)-4-(2-fluoro-4-(3-fluoro-1H-pyrrolo[2,3-b]pyridin-4-yl)-6-methylphenyl)-3,5-dimethyl-[1,4′-bipiperidin]-4-ol] | 179 | 7.9 | 4.2 |
| C[C@@H]1CN(Cc2ccccc2)C[C@H](C)[C@@]1(O)c1c(F)cc(-c2ccnc3[nH]cc(F)c23)cc1F [Compound 93, (3S,4s,5R)-1-benzyl-4-(2,6-difluoro-4-(3-fluoro-1H-pyrrolo[2,3-b]pyridin-4-yl)phenyl)-3,5-dimethylpiperidin-4-ol] | 2090 | 10.6 | 7.7 |
| CC(=O)N1C[C@@H](C)[C@](O)(c2c(F)cc(-c3ccnc4[nH]cc(F)c34)cc2F)[C@@H](C)C1 [Compound 94, 1-((3S,4s,5R)-4-(2,6-difluoro-4-(3-fluoro-1H-pyrrolo[2,3-b]pyridin-4-yl)phenyl)-4-hydroxy-3,5-dimethylpiperidin-1-yl)ethan-1-one] | 4750 | 17.8 | 29.4 |
| CC(=O)N1C[C@@H](C)[C@](O)(c2c(C)cc(-c3ccnc4[nH]cc(F)c34)cc2F)[C@@H](C)C1 [Compound 95, 1-((3S,5R)-4-(2-fluoro-4-(3-fluoro-1H-pyrrolo[2,3-b]pyridin-4-yl)-6-methylphenyl)-4-hydroxy-3,5-dimethylpiperidin-1-yl)ethan-1-one] | 2620 | 6.9 | 4.8 |
| OC1(c2ccc(-c3ccnc4[nH]cc(F)c34)cc2Cl)CCN2CCCC2C1 (stereo not drawn) [Compound 96, 7-(2-chloro-4-(3-fluoro-1H-pyrrolo[2,3-b]pyridin-4-yl)phenyl)octahydroindolizin-7-ol] | 771 | 17 | 17.9 |
| OC1(c2ccc(-c3ccnc4[nH]cc(F)c34)cc2Cl)CCNCC1 [Compound 97, 4-(2-chloro-4-(3-fluoro-1H-pyrrolo[2,3-b]pyridin-4-yl)phenyl)piperidin-4-ol] | 712 | 11.4 | 42.8 |
| CC1CC(O)(c2ccc(-c3ccnc4[nH]cc(F)c34)cc2Cl)CCN1 (stereo not drawn) [Compound 98, 4-(2-chloro-4-(3-fluoro-1H-pyrrolo[2,3-b]pyridin-4-yl)phenyl)-2-methylpiperidin-4-ol] | 383 | 24 | 37 |
| CC1CNCCC1(O)c1ccc(-c2ccnc3[nH]cc(F)c23)cc1Cl (stereo not drawn) [Compound 99, 4-(2-chloro-4-(3-fluoro-1H-pyrrolo[2,3-b]pyridin-4-yl)phenyl)-3-methylpiperidin-4-ol] | 219 | 10.6 | 6.2 |
| CC1CC(O)(c2ccc(-c3ccnc4[nH]cc(F)c34)cc2Cl)CC(C)N1 (stereo not drawn) [Compound 100, 4-(2-chloro-4-(3-fluoro-1H-pyrrolo[2,3-b]pyridin-4-yl)phenyl)-2,6-dimethylpiperidin-4-ol] | 1900 | 230 | 195 |
| COC(=O)c1c[nH]c2nccc(-c3ccc(C4(O)CCNCC4)c(Cl)c3)c12 [Compound 101, methyl 4-(3-chloro-4-(4-hydroxypiperidin-4-yl)phenyl)-1H-pyrrolo[2,3-b]pyridine-3-carboxylate] | 1950 | 7.1 | 70.8 |

Now from value to compound:

| IC50 (AKT) [nM] | IC50 (LATS1) [nM] | IC50 (LATS2) [nM] | SMILES |
| --- | --- | --- | --- |
| 4870 | 82 | 224 | OC1(c2ccc(-c3ccnc4[nH]cc(F)c34)cc2Cl)C2CNCC1C2 (stereo not drawn) [Compound 102, 6-(2-chloro-4-(3-fluoro-1H-pyrrolo[2,3-b]pyridin-4-yl)phenyl)-3-azabicyclo[3.1.1]heptan-6-ol] |
| 1720 | 43.9 | 162 | O[C@]1(c2ccc(-c3ccnc4[nH]cc(F)c34)cc2Cl)[C@@H]2CC[C@H]1CNC2 [Compound 103, (1R,5S,8s)-8-(2-chloro-4-(3-fluoro-1H-pyrrolo[2,3-b]pyridin-4-yl)phenyl)-3-azabicyclo[3.2.1]octan-8-ol] |
| 6580 | 145 | 326 | Cc1nc(-c2ccnc3[nH]cc(F)c23)ccc1C1(O)CCNCC1 [Compound 104, 4-(6-(3-fluoro-1H-pyrrolo[2,3-b]pyridin-4-yl)-2-methylpyridin-3-yl)piperidin-4-ol] |
| 828 | 16 | 14 | OC1(c2ccc(-c3ccnc4[nH]cc(F)c34)cc2Cl)CNC1 [Compound 105, 3-(2-chloro-4-(3-fluoro-1H-pyrrolo[2,3-b]pyridin-4-yl)phenyl)azetidin-3-ol] |
| 885 | 18.2 | 110 | COC(=O)c1c[nH]c2nccc(-c3ccc(C4(O)CNC4)c(Cl)c3)c12 [Compound 106, methyl 4-(3-chloro-4-(3-hydroxyazetidin-3-yl)phenyl)-1H-pyrrolo[2,3-b]pyridine-3-carboxylate] |
| > 10000 | 473 | 661 | Cc1nc(-c2ccnc3[nH]cc(F)c23)ccc1C1(O)CC2(CNC2)C1 [Compound 107, 6-(6-(3-fluoro-1H-pyrrolo[2,3-b]pyridin-4-yl)-2-methylpyridin-3-yl)-2-azaspiro[3.3]heptan-6-ol] |
